A short description of this data set: recombinant UMI read abundance after kanamycin selection (control-corrected) (log10(CPM+1)); higher = more efficient recombination; extreme values may be limits of the assay; sequences stand for … in AGTGCAGAGAAAATCGGCCAGTTTTCTCTGCCTGCAGTCCGCATGCCGTGGGACCCCTTGGGTTCTAACCTGTTGCCTAGATTTATGCAGCGGACTGCCTTTCTCCCAAAGTGATAAACCGG…AGGTTGGTTTCACT; site = the 11-nt donor. In a few lines: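 After plating on IPTG (0.07 mM) plus kanamycin, or unselected, in two replicates, recombinant UMIs were PCR-amplified across the donor–target junction and sequenced. The cells were Escherichia coli co-electroporated with a UMI-tagged donor and donor-binding-loop pair library and a target plasmid with a fixed target and T7-inducible IS621 bridge recombinase. Values are log10(CPM+1), with CPM averaged over replicates and scaled by control-derived factors.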
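Further: IS621 bridge recombinase in Escherichia coli cells against a fixed T5 target plasmid.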

Take “GGGATCGCATGGACCGGTTTTCCCGGTAATCCGTATTTGCT (site GGGATCGCTAG)”: the “recombinant UMI read abundance (log10)” value stood at 3.09.

As to “GGGATGACATGGACCGGTTTTCCCGGTAATCCGTATTTGAG (site GGGATGACTCT)”, the “recombinant UMI read abundance (log10)” value turned out to be 1.86.

For the sequence “GGGATGCCATGGACCGGTTTTCCCGGTAATCCGTATTTGGC (site GGGATGCCTGC)”, the “recombinant UMI read abundance (log10)” value is 0.

In the case of “GGGCAACCATGGACCGGTTTTCCCGGTAATCCGTATTTGCG (site GGGCAACCTCG)”, the “recombinant UMI read abundance (log10)” value stood at 0.

For “GGGCAGACATGGACCGGTTTTCCCGGTAATCCGTATTTGCA (site AGGAAGACTTG)”, the “recombinant UMI read abundance (log10)” value turned out to be 0.0416.

Turning to “GGGCAGACATGGACCGGTTTTCCCGGTAATCCGTATTTGCA (site GGGCAGACTTG)”, the “recombinant UMI read abundance (log10)” value was determined as 2.58.

In the case of “GGGGAACCATGGACCGGTTTTCCCGGTAATCCGTATTTGCA (site GGGGAACCTTG)”, the “recombinant UMI read abundance (log10)” value amounted to 0.

Take “GGGGAACCATGGACCGGTTTTCCCGGTAATCCGTATTTGCA (site GGGGCACCTTG)”: the “recombinant UMI read abundance (log10)” value was 0.

“GGGGAACCATGGACCGGTTTTCCCGGTAATCCGTATTTGCA (site GGGGGACCTTG)”: the “recombinant UMI read abundance (log10)” value turned out to be 0.

Consider “GGGGAACCATGGACCGGTTTTCCCGGTAATCCGTATTTGCA (site GGGGTACCTTG)”, for which the “recombinant UMI read abundance (log10)” value was found to be 0.

Take “GGGGAATCATGGACCGGTTTTCCCGGTAATCCGTATTTGGG (site GGGGAATCTCC)”: the “recombinant UMI read abundance (log10)” value stood at 0.39.

“GGGGCAACATGGACCGGTTTTCCCGGTAATCCGTATTTGTC (site GGGGCAACTGA)”: the “recombinant UMI read abundance (log10)” value stood at 1.94.

On to “GGGGTAACATGGACCGGTTTTCCCGGTAATCCGTATTTGGG (site GGGGTAACTCC)”, for which the “recombinant UMI read abundance (log10)” value stood at 0.597.

For the sequence “GGGGTTGCATGGACCGGTTTTCCCGGTAATCCGTATTTGCG (site GGGGTTGCTCG)”, the “recombinant UMI read abundance (log10)” value worked out at 1.75.

“GGGTACACATGGACCGGTTTTCCCGGTAATCCGTATTTGGC (site GGGTACACTGC)”: the “recombinant UMI read abundance (log10)” value was 3.08.

In the case of “GGGTCGGCATGGACCGGTTTTCCCGGTAATCCGTATTTGGC (site GGGTCGGCTGC)”, the “recombinant UMI read abundance (log10)” value came to 2.18.

“GGGTGTTCATGGACCGGTTTTCCCGGTAATCCGTATTTGTT (site GGGTGTTCTAA)”: the “recombinant UMI read abundance (log10)” value came to 1.1.

On to “GGGTTGACATGGACCGGTTTTCCCGGTAATCCGTATTTGAA (site GGGTTGACTTT)”, for which the “recombinant UMI read abundance (log10)” value was 0.979.

Take “GGTAAGTCATGGACCGGTTTTCCCGGTAATCCGTATTTGTT (site GGTAAGTCTAA)”: the “recombinant UMI read abundance (log10)” value amounted to 1.98.

Turning to “GGTAAGTCATGGACCGGTTTTCCCGGTAATCCGTATTTGTT (site GGTACGTCTAA)”, the “recombinant UMI read abundance (log10)” value was found to be 0.00407.

Regarding “GGTAAGTCATGGACCGGTTTTCCCGGTAATCCGTATTTGTT (site GGTAGGTCTAA)”, the “recombinant UMI read abundance (log10)” value stood at 0.00944.

Regarding “GGTAAGTCATGGACCGGTTTTCCCGGTAATCCGTATTTGTT (site GGTATGTCTAA)”, the “recombinant UMI read abundance (log10)” value was found to be 0.00986.

Consider “GGTAATCCATGGACCGGTTTTCCCGGTAATCCGTATTTGAA (site GGAAATCCTTT)”, for which the “recombinant UMI read abundance (log10)” value was 0.00275.

Consider “GGTAATCCATGGACCGGTTTTCCCGGTAATCCGTATTTGAA (site GGCAATCCTTT)”, for which the “recombinant UMI read abundance (log10)” value amounted to 0.58.

For “GGTAATCCATGGACCGGTTTTCCCGGTAATCCGTATTTGAA (site GGGAATCCTTT)”, the “recombinant UMI read abundance (log10)” value stood at 0.00622.

In the case of “GGTAATCCATGGACCGGTTTTCCCGGTAATCCGTATTTGAA (site GGTAATCCTTT)”, the “recombinant UMI read abundance (log10)” value turned out to be 0.27.

On to “GGTACATCATGGACCGGTTTTCCCGGTAATCCGTATTTGAG (site GGTACATCTCT)”, for which the “recombinant UMI read abundance (log10)” value stood at 0.66.

“GGTACGACATGGACCGGTTTTCCCGGTAATCCGTATTTGTT (site GGTACGACTAA)”: the “recombinant UMI read abundance (log10)” value was found to be 0.444.

With “GGTACGACATGGACCGGTTTTCCCGGTAATCCGTATTTGTT (site GGTACGCCTAA)”, the “recombinant UMI read abundance (log10)” value is 0.0177.

Take “GGTACGACATGGACCGGTTTTCCCGGTAATCCGTATTTGTT (site GGTACGGCTAA)”: the “recombinant UMI read abundance (log10)” value was 0.0185.

With “GGTACGACATGGACCGGTTTTCCCGGTAATCCGTATTTGTT (site GGTACGTCTAA)”, the “recombinant UMI read abundance (log10)” value amounted to 0.0179.

On to “GGTACGTCATGGACCGGTTTTCCCGGTAATCCGTATTTGTC (site GGTACGTCTAA)”, for which the “recombinant UMI read abundance (log10)” value stood at 0.0158.

For “GGTACGTCATGGACCGGTTTTCCCGGTAATCCGTATTTGTC (site GGTACGTCTCA)”, the “recombinant UMI read abundance (log10)” value worked out at 0.0113.

Turning to “GGTACGTCATGGACCGGTTTTCCCGGTAATCCGTATTTGTC (site GGTACGTCTGA)”, the “recombinant UMI read abundance (log10)” value was 0.0103.

As to “GGTACGTCATGGACCGGTTTTCCCGGTAATCCGTATTTGTC (site GGTACGTCTTA)”, the “recombinant UMI read abundance (log10)” value was found to be 0.0125.

Consider “GGTATGCCATGGACCGGTTTTCCCGGTAATCCGTATTTGAC (site GGTATGCCTGT)”, for which the “recombinant UMI read abundance (log10)” value turned out to be 0.

Turning to “GGTATTTCATGGACCGGTTTTCCCGGTAATCCGTATTTGAA (site GGTATTTCTTT)”, the “recombinant UMI read abundance (log10)” value is 0.

Take “GGTCAAGCATGGACCGGTTTTCCCGGTAATCCGTATTTGGC (site GGTCAAGCTGC)”: the “recombinant UMI read abundance (log10)” value is 1.47.

Consider “GGTCCATCATGGACCGGTTTTCCCGGTAATCCGTATTTGTA (site GGTCCAACTTA)”, for which the “recombinant UMI read abundance (log10)” value was found to be 0.016.

Turning to “GGTCCATCATGGACCGGTTTTCCCGGTAATCCGTATTTGTA (site GGTCCACCTTA)”, the “recombinant UMI read abundance (log10)” value is 0.0104.

As for “GGTCCATCATGGACCGGTTTTCCCGGTAATCCGTATTTGTA (site GGTCCAGCTTA)”, the “recombinant UMI read abundance (log10)” value was found to be 0.00308.

With “GGTCCATCATGGACCGGTTTTCCCGGTAATCCGTATTTGTA (site GGTCCATCTTA)”, the “recombinant UMI read abundance (log10)” value came to 0.459.

Turning to “GGTCCCACATGGACCGGTTTTCCCGGTAATCCGTATTTGTA (site GGTCCAACTTA)”, the “recombinant UMI read abundance (log10)” value stood at 0.

As to “GGTCCCACATGGACCGGTTTTCCCGGTAATCCGTATTTGTA (site GGTCCCACTTA)”, the “recombinant UMI read abundance (log10)” value was 0.0202.

As for “GGTCCCACATGGACCGGTTTTCCCGGTAATCCGTATTTGTA (site GGTCCGACTTA)”, the “recombinant UMI read abundance (log10)” value came to 0.0061.

On to “GGTCCCACATGGACCGGTTTTCCCGGTAATCCGTATTTGTA (site GGTCCTACTTA)”, for which the “recombinant UMI read abundance (log10)” value turned out to be 0.0287.

As to “GGTCGATCATGGACCGGTTTTCCCGGTAATCCGTATTTGCG (site GGTCGATCTCG)”, the “recombinant UMI read abundance (log10)” value came to 0.598.

Regarding “GGTCGTCCATGGACCGGTTTTCCCGGTAATCCGTATTTGTA (site GGTCGTCCTTA)”, the “recombinant UMI read abundance (log10)” value was determined as 0.0245.

“GGTCTAACATGGACCGGTTTTCCCGGTAATCCGTATTTGTA (site GGTCAAACTTA)”: the “recombinant UMI read abundance (log10)” value worked out at 0.0026.

In the case of “GGTCTAACATGGACCGGTTTTCCCGGTAATCCGTATTTGTA (site GGTCCAACTTA)”, the “recombinant UMI read abundance (log10)” value was 0.

Take “GGTCTAACATGGACCGGTTTTCCCGGTAATCCGTATTTGTA (site GGTCGAACTTA)”: the “recombinant UMI read abundance (log10)” value is 0.0128.

Turning to “GGTCTAACATGGACCGGTTTTCCCGGTAATCCGTATTTGTA (site GGTCTAACTTA)”, the “recombinant UMI read abundance (log10)” value stood at 0.607.

In the case of “GGTCTACCATGGACCGGTTTTCCCGGTAATCCGTATTTGCA (site GGTCTACCTTG)”, the “recombinant UMI read abundance (log10)” value came out at 0.

On to “GGTGCTGCATGGACCGGTTTTCCCGGTAATCCGTATTTGTG (site GGTGCTGCTCA)”, for which the “recombinant UMI read abundance (log10)” value is 0.0597.

“GGTGGTGCATGGACCGGTTTTCCCGGTAATCCGTATTTGAC (site GGTGGTGCTGT)”: the “recombinant UMI read abundance (log10)” value came to 2.18.

Turning to “GGTGTGGCATGGACCGGTTTTCCCGGTAATCCGTATTTGGT (site GGAGTGGCTAC)”, the “recombinant UMI read abundance (log10)” value is 0.128.

Regarding “GGTGTGGCATGGACCGGTTTTCCCGGTAATCCGTATTTGGT (site GGCGTGGCTAC)”, the “recombinant UMI read abundance (log10)” value was determined as 0.0168.

Turning to “GGTGTGGCATGGACCGGTTTTCCCGGTAATCCGTATTTGGT (site GGGGTGGCTAC)”, the “recombinant UMI read abundance (log10)” value is 0.145.

For “GGTGTGGCATGGACCGGTTTTCCCGGTAATCCGTATTTGGT (site GGTGTGGCTAC)”, the “recombinant UMI read abundance (log10)” value was determined as 0.636.

Consider “GGTGTTACATGGACCGGTTTTCCCGGTAATCCGTATTTGTT (site GGTGTTACTAA)”, for which the “recombinant UMI read abundance (log10)” value is 0.51.

On to “GGTGTTCCATGGACCGGTTTTCCCGGTAATCCGTATTTGGC (site GGTGTTCCTGC)”, for which the “recombinant UMI read abundance (log10)” value was determined as 0.

In the case of “GGTGTTCCATGGACCGGTTTTCCCGGTAATCCGTATTTGTT (site GGTGTTCCTAA)”, the “recombinant UMI read abundance (log10)” value came to 0.00351.

“GGTTCCGCATGGACCGGTTTTCCCGGTAATCCGTATTTGCG (site GGTTCCGCTCG)”: the “recombinant UMI read abundance (log10)” value came to 0.

For the sequence “GGTTCGTCATGGACCGGTTTTCCCGGTAATCCGTATTTGTT (site GGTACGTCTAA)”, the “recombinant UMI read abundance (log10)” value amounted to 0.0147.

Consider “GGTTCGTCATGGACCGGTTTTCCCGGTAATCCGTATTTGTT (site GGTCCGTCTAA)”, for which the “recombinant UMI read abundance (log10)” value was 0.0123.

Consider “GGTTCGTCATGGACCGGTTTTCCCGGTAATCCGTATTTGTT (site GGTGCGTCTAA)”, for which the “recombinant UMI read abundance (log10)” value stood at 0.00284.

Take “GGTTCGTCATGGACCGGTTTTCCCGGTAATCCGTATTTGTT (site GGTTCGTCTAA)”: the “recombinant UMI read abundance (log10)” value amounted to 0.351.

“GGTTTCACATGGACCGGTTTTCCCGGTAATCCGTATTTGTA (site GGTTTCACTTA)”: the “recombinant UMI read abundance (log10)” value was 0.519.

The values are drawn from the supplement of paper PMC11208160.
